Here are results for four compounds from patent US20120029037A1, “ANIMAL ECTOPARASITE-CONTROLLING AGENT” (SUMITOMO CHEMICAL COMPANY, LIMITED, priority 2010, published 2012).

What all share (format): in vivo
Assay [1] relates to Ticks (Haemaphysalis longicornis). Briefly: Pesticidal activity on ticks in filter paper test. The conditions noted are these: 48 h, 100 mg/m^2, non-blood-fed young ticks, 2 days later. Here is the method: Pesticidal Activity on Ticks (Haemaphysalis longicornis) in Filter Paper Test
Each (5 mg) of the present hydrazide compounds (5), (8), (11) and (12) was dissolved in acetone (10 mL), and this acetone solution (1 mL) was uniformly applied onto one side of a filter paper (TOYO No. 2; 5×10 cm; the surface area of the filter paper was 50 cm^2, and thus the amount of the present hydrazide compound applied was 100 mg/m^2). After drying, said filter paper was folded, and the both sides of the paper were clipped to form a bag. Into this bag, test ticks (Haemaphysalis longicornis, non-blood-fed young ticks, 10 ticks/group) were added, and the opening was clipped to seal the bag. Two (2) days later, the number of dead ticks was examined and the mortality was calculated by the following formula:
Mortality (%)=100×(number of dead ticks/number of ticks tested)

Assay [2] concerns Mouse-infested cat fleas (Ctenocephalides felis). The experiment in a line: Oral administration against mouse-infested cat fleas. Particulars: 20 mg in 10 mL test solution at 10 mL per 1 kg body weight, 2 days later. Here is the method:
Oral Administration Against Mouse-Infested Cat Fleas (Ctenocephalides felis)
The present hydrazide compound (5) (20 mg) was dissolved in dimethylformamide (680 mg), and thereto pure water or a corn oil was added to prepare a test solution (10 mL). Said test solution was orally administered to the mouse at a rate of 10 mL per 1 kg of the body weight of the mouse with a gastric sonde. To a control group, a 7% dimethylformamide/corn oil solution alone was orally administered. Each administration was repeated 3 times per group.
After the oral administration, 20 cat fleas were deposited on each mouse. Two (2) days later, the number of cat fleas was examined and the mortality was calculated by the following formula:
(§1) Mortality (%)=100×(number of dead cat fleas/number of cat fleas tested)

Assay [3] deals with Cat-infested cat fleas (Ctenocephalides felis). Briefly: Dropping application against cat-infested cat fleas. The conditions noted are these: dropping on skin; for Flea control rates (%) at 2 days after the application: vs infestation before application; for Flea control rates (%) at 16 days after the application: vs placebo group. As for the experimental part:
Propping Application Against Cat-Infested Cat Fleas (Ctenocephalides felis)
The previous day before dropping application, 50 test fleas (cat flea adults) were deposited on a cat. Before the dropping application, infested fleas were counted.
The present hydrazide compound (5) (0.75 g or 1.5 g) was dissolved in diethylene glycol monoethyl ether (6.0 g) to prepare a test solution. Said test solution was directly dropped on the skin of the neck and back of the cat while pushing aside fur thereon on at a rate of 0.1 ml per 1 kg of the cat's body weight (dose amount: 10 or 20 mg/kg). This is referred to as a test group. On the other hand, diethylene glycol monoethyl ether alone was applied dropwise to a placebo group.
Two (2) days after the application, the number of living fleas, which were infesting the cats, was examined. When the examination was completed, all infested fleas were removed from the cats.
Fourteen (14) days later, 50 test fleas were re-deposited on each cat. Two (2) days after the re-deposit, the number of living fleas, which were infesting the cats, was examined. When the examination was completed, all infested fleas were removed from the cats. The infestation rate and control rate were calculated by the following formulae: […]
(i) Method of calculating infestation rate and control rate at the initial stage (2 days) after the application:
Infestation rate (%) at X days after application=(number of living fleas at X days/number of living fleas before application)×100
Control rate (%) at X days after application=(infestation rate of test group before application−infestation rate of test group at X days)/infestation rate of test group before application×100
(ii) Method of calculating infestation rate and control rate at 16 days after the application:
Infestation rate (%) at X days after application=(number of living fleas at X days/number of fleas deposited)×100
Control rate (%) at X days after application=(infestation rate of placebo group at X days−infestation rate of test group at X days)/infestation rate of placebo group at X days×100
(§2) In addition, if an infestation rate of a test group is higher than a placebo group, then the control rate is deemed to be 0%.

Assay [4] relates to Dog-infested ticks (Haemaphysalis longicornis). Briefly: Dropping application against dog-infested ticks. The conditions noted are these: dropping on skin, 16 days after application, vs placebo group. As for the experimental part:
Propping Application Against Dog-Infested Ticks (Haemaphysalis longicornis)
The present hydrazide compound (5) (0.75 or 1.5 g) was dissolved in diethylene glycol monoethyl ether (6.0 g) to prepare a test solution. Said test solution was directly dropped on the skin of the neck and back of the dog while pushing aside fur thereon at a rate of 0.1 ml per 1 kg of the dog's body weight (dose amount: 10 or 20 mg/kg). This is referred to as a test group. On the other hand, diethylene glycol monoethyl ether alone was applied dropwise to a placebo group.
Fourteen (14) days later, 100 test ticks were deposited on each dog. Two (2) days after the deposit, the number of living ticks, which were infesting the dogs, was examined. When the examination was completed, all infested ticks were removed from the dogs. The infestation rate and control rate were calculated by the following formulae: […]
Method of calculating infestation rate and control rate at 16 days after the application:
Infestation rate (%) at X days after application=(number of living ticks at X days/number of ticks deposited)×100
Control rate (%) at X days after the application=(infestation rate of placebo group at X days−infestation rate of test group at X days)/infestation rate of placebo group at X days×100
as §2

Assay [5] relates to Mouse-infested cat fleas (Ctenocephalides felis). Briefly: Dropping application against mouse-infested cat fleas. The conditions noted are these: 0.5% w/v solution 200 μL dropwise along dorsal line, 2 days later. Here is the method: Propping Application Against Mouse-Infested Cat Fleas (Ctenocephalides felis)
The present hydrazide compound (5) (25 mg) was dissolved in propylene carbonate (5 mL) to prepare a 0.5% w/v solution. Said solution (200 μL) was applied dropwise along the dorsal line of a mouse with a pipette. To a control group, propylene carbonate (200 μL) alone was applied. Each application was repeated 3 times per group.
After the dropping application, 20 cat fleas were deposited on each mouse. Two (2) days later, the number of dead cat fleas was examined and the mortality was calculated by the following formula:
as §1

The subject of assay [6] is Mouse-infested ticks (Haemaphysalis longicornis). Briefly: Oral administration against mouse-infested ticks. The conditions noted are these: 20 mg in 10 mL test solution at 10 mL per 1 kg body weight, 2 days after administration. Here is the method:
Oral Administration Against Mouse-Infested Ticks (Haemaphysalis longicornis)
The previous day before oral administration, 30 test ticks (Haemaphysalis longicornis, young ticks) were deposited on a mouse. Before the oral administration, uninfested ticks were removed.
The present hydrazide compound (5) (20 mg) was dissolved in dimethylformamide (680 mg), and thereto pure water or a corn oil was added to prepare a test solution (10 mL). Said test solution was orally administered to the mouse at the rate of 10 mL per 1 kg of the body weight of the mouse with a gastric sonde. To a control group, a 7% dimethylformamide/corn oil solution alone was orally administered. Each administration was repeated 3 times per group.
Two (2) days after the administration, the number of dead ticks was examined and the mortality was calculated by the following formula:
Mortality (%)=100×(number of dead ticks/infested ticks before oral administration)

For assay [7] the test system is unchanged. The experiment in a line: Dropping application against mouse-infested ticks. The conditions noted are these: 0.1% w/v solution 200 μL dropwise to whole body surface, 2 days after application. As for the experimental part: Propping Application Against Mouse-Infested Ticks (Haemaphysalis longicornis)
The previous day before dropping application, 30 test ticks (Haemaphysalis longicornis, young ticks) were deposited on a mouse. Before the dropping application, uninfested ticks were removed.
The present hydrazide compound (5) (5 mg) was dissolved in a mixture (5 mL) of propylene carbonate and diethylene glycol monoethyl ether in equal amounts to prepare a 0.1% w/v solution. Said solution (200 μL) was applied dropwise to the whole body surface of a mouse with a pipette. To a control group, the mixture (200 μL) alone was applied. Each application was repeated 3 times per group.
Two (2) days after the application, the number of dead ticks was examined and the mortality was calculated by the following formula:
Mortality (%)=100×(number of dead ticks/infested ticks before dropping application)

On to `CC(C)(C)C(=O)NNc1cc(C2=NOC(c3cc(Cl)cc(Cl)c3)(C(F)(F)F)C2)ccc1Cl` (centres unmarked) [(8), N′-{5-[5-(3,5-dichlorophenyl)-5-trifluoromethyl-4,5-dihydroisoxazol-3-yl]-2-chlorophenyl}pivalohydrazide], for which, in assay [1], the mortality at 100 mg/m2 was no less than 90%.

Compound `CCCCC(=O)NNc1cc(C2=NOC(c3cc(Cl)cc(Cl)c3)(C(F)(F)F)C2)ccc1Cl` (centres unmarked) [(11), N′-{5-[5-(3,5-dichlorophenyl)-5-trifluoromethyl-4,5-dihydroisoxazol-3-yl]-2-chlorophenyl}pentanohydrazide] yielded a mortality at 100 mg/m2 in assay [1] of no less than 90%.

In turn, `CCCCCC(=O)NNc1cc(C2=NOC(c3cc(Cl)cc(Cl)c3)(C(F)(F)F)C2)ccc1Cl` (centres unmarked) [(12), N′-{5-[5-(3,5-dichlorophenyl)-5-trifluoromethyl-4,5-dihydroisoxazol-3-yl]-2-chlorophenyl}hexanohydrazide] displayed a mortality at 100 mg/m2 in assay [1] of no less than 90%.

As for `CC(C)CC(=O)NNc1cc(C2=NOC(c3cc(Cl)cc(Cl)c3)(C(F)(F)F)C2)ccc1Cl` (centres unmarked) [Compound (5), N′-{2-chloro-5-[5-(3,5-dichlorophenyl)-5-trifluoromethyl-4,5-dihydroisoxazol-3-yl]phenyl}isovalerohydrazide], the Mortality in assay [2] is reported as no less than 90%; in assay [5] it was no less than 70%; in assay [6] it was no less than 90%; in assay [7] it was no less than 70%. This compound also yielded a mortality at 100 mg/m2 in assay [1] of no less than 90%. Further, the “Flea control rates (%) at 2 days after the application” value in assay [3] (dose 10 mg/kg) is on record as 83%; in assay [3] (dose 20 mg/kg), 92%. Moreover, the “Flea control rates (%) at 16 days after the application” value stood at 92% in assay [3] (dose 10 mg/kg) and 95% in assay [3] (dose 20 mg/kg). For the same compound, the results for the “Tick control rates (%) at 16 days after the application” value in assay [4] (dose 10 mg/kg) and in assay [4] (dose 20 mg/kg) were 93% and 100%, respectively.

By mortality is commonly meant the percentage killed. A lower mortality goes with a weak lethal effect.
